The record followed here is patent publication US20240158359A1, “HYDROLYSIS-RESISTANT ESTERS FOR DRUG AND IMAGING AGENT DELIVERY” (The Board of Trustees of the University of lllinois, priority 2022, published 2024).

Data set [1] in a line: Hydrolytic stability of BL660 esters in PBS, luciferase BL readout. The class given is physicochemical. The conditions noted are these: PBS pH 7.4, 37° C.; versus Compound (1). The procedure:
We began our analysis of stability by incubating BL660 esters of Compound (1), Compound (2), and Compound (3) at 37° C. in PBS (phosphate-buffered saline) (pH 7.4). After 1, 6, and 12 hours, luciferase was added (10mU, 37° C., pH 7.4) to initiate BL production. The rate of hydrolysis, reported as total luminescence counts per hour, indicates hydrolysis in descending order is: Compound (1) (13.9±1.4×10^3); Compound (2) (3.3±0.6×10^3), and Compound (3) (1.0±0.1×10^3) (FIG. 1b, wherein the esters are indicated on the horizontal axis) and FIG. 8 (wherein the respective timeline plots are identified beneath the horizontal axis as (1), (2), etc.). Luminescent counts were recorded using an IVIS In Vivo Imaging System. […] Without wishing to be bound by any theory, we speculate hydrolysis of (3) may involve an SN1 mechanism, thus favoring formation of a double benzylic carbocation.

A further data set deals with porcine liver esterase. The data set can be described thus: Esterase reactivity: treatment with porcine liver esterase, BL readout. Format: in vitro ADME. The conditions noted are these: porcine liver esterase 0.1 units/mL; versus Compound (1). From the text:
The enzymatic rates, reported as total luminescence counts per minute, in descending order are: Compound (1) (31.0±6.8×10^2), (3) (9.5±1.2×10^2), and (2) (0.6±0.1×10^2) (FIG. 1c and FIG. 9). The greater stability imparted by the aromatic ring is not surprising since esterase reactivity can be readily attenuated with bulkier substituents.

A short description of data set [2]: Hydrolytic stability of Compound (4) in Britton-Robinson buffer at pH 5, 7.4 and 9. The conditions noted are these: 10 μM. The class given is physicochemical. Here is the method: (§1) Following this set of experiments, we subjected Compound (4) to acidic (pH 5) and alkaline (pH 9) conditions to account for the various pH gradients in the body. For these experiments we used the Britton-Robinson buffer system. […] These include lipase, human carboxyesterase-2, monoacylglycerol lipase, fatty acid amide hydrolase, and aldehyde dehydrogenase 1A1.
Compound (4) (10 μM final concentration with 1% DMSO) was first incubated in Britton-Robinson buffer (pH 5, 7.4 and 9) at 37° C. for 2, 3 and 4 hrs. Then the pH's were adjusted to 7.4. Luminescence was measured by blocking excitation light and measuring emissions with 660 nm gating. Total volume of the reaction mixture was maintained at 100 μL. To the 50 μL of this reaction mixture was ATP-MgSO4 (45 μL, prepared by mixing 17.78 mM ATP-Mg and 35.56 mM MgSO4 in 1:1 ratio in PBS buffer) and the reaction was initiated with Luciferase (5 μL, 0.25 mg/mL in PBS containing 10% glycerol).

In data set [3] the test system is lipase, human carboxyesterase-2, monoacylglycerol lipase, fatty acid amide hydrolase, and aldehyde dehydrogenase 1A1. The data set can be described thus: Enzyme selectivity assay for Compound 4 against panel of ester-cleaving enzymes. Format: in vitro ADME. The conditions noted are these: 5 μM, 10 mU of each enzyme (ALDH 1A1 100 nM), 37° C. The procedure:
as §1
Enzyme Selectivity Assay for Compound 4. […] Compound 4 was incubated with 10 mU of each enzyme at 37° C. for 30 min before ATP-MgSO4 and luciferase were added to initiate bioluminescence production. […] ALDH 1A1 was used at a final concentration of 100 nM.

The subject of the next data set is 4T1-Luc cells. The data set can be described thus: Ester stability in live 4T1-Luc cells, BL imaging. The class given is cell-based, murine. The conditions noted are these: 10 μM, 30 mins at 37° C. The procedure:
First, we prepared BL660-Me, a methyl ester derivative of BL660 as shown in FIG. 2a for comparison to the benzyl ester (4) of FIG. 1a. Next, we cultured 4T1 murine breast cancer cells, stably expressing the luciferase enzyme (4T1-Luc). The cells were then treated with a DMSO (dimethyl sulfoxide) vehicle control, BL660-Me or Compound (4) (FIG. 3a and FIG. 10a, b, c respectively?). Imaging was performed using the IVIS In Vivo Imaging System.
4T1-Luc cell was cultured in phenol red-free RPMI 1640 (ATCC) with 10% fetal bovine serum (FBS, Sigma Aldrich), and 1% penicillin/streptomycin (Corning).
Evaluation of BL660-Me and 4 in 4T1-Luc Cells. 4T1-Luc cells (180K) were seeded into 24-well plates and incubated for 24 hours. The cells were ˜85% confluent. The media was removed and replaced with serum-free RPMI 1640. An initial background scan was recorded on an IVIS imaging system in open mode where no filters were applied. Cells were then treated with DMSO (2.5 μL, 0.5%), BL660-Me, or compound 4 in DMSO (10 μM final concentration). After 30 minutes incubation at 37° C., bioluminescence was collected. ROIs were drawn around each well. The total luminescence count for each well for a given condition was averaged. The signal intensity was quantified using the Living Image Analysis Software.

For another data set, the system named is A549-Luc2 tumors. The data set can be described thus: BL imaging of tumor hypoxia in a lung cancer model. The class given is in vivo, NU/J mice. The conditions noted are these: 2.2 μmol/kg. Here is the method:
NU/J mice (male, ˜5-weeks old) were inoculated with A549-Luc2 lung cancer cells (5×10^6) in both flanks. Testing of BL660-NTR commenced after tumors had grown to a volume of ˜300 mm^3 (˜4 weeks). First, we performed imaging using BL660-NTR, which was administered systemically via retroorbital injection (ROI) (FIG. 5a (upper horizontal row of points) and FIG. 14). ROIs were drawn around each tumor and the luminescent count was summed for each animal. […] The BL intensity appears to decrease slightly after 15 mins and levels off until the end of the experiment (75 mins) (FIG. 5c).
Next, to distinguish between NTR activation and off-target ester hydrolysis, we employed Compound (4) as a control reagent, which only differs in that the nitro trigger is absent (FIG. 1a). After approximately 20 hours, the same animals were treated with Compound (4) and imaged (FIG. 5b and FIG. 15). This delay was to ensure the probe had fully cleared from the first experiment. […] The total luminescent count after 15 mins for Compound 4 was only 4.0±0.7×10^3; whereas the corresponding readout was 16.6±2.5×10^3 for BL660-NTR. This represents a […] difference, indicating successful detection of tumor hypoxia (FIG. 5d).
NU/J mice bearing A549-Luc2 tumors were anesthetized using isoflurane (1-3% for maintenance; up to 5% for induction) in oxygen from a precision vaporizer. After testing to ensure animals are fully under anesthesia, an initial background scan is recorded. BL660-NTR or compound 4 formulated in 3:7 v/v DMSO:PBS. The solution was filtered through a […] sterile filter immediately prior to use. The typical injection volume is ˜100 μM at a dose of 2.2 μmol/kg. The solution was then administered via retroorbital injection. Images were captured using the IVIS® imaging system at 5, 15, 30, 45, 60, and 75 minutes after injection. Bioluminescence light was collected in open mode (no filters were applied). Regions of interest (“ROIs”) were drawn around each tumor and summed for each animal. The signal intensity was quantified using the Living Image Analysis Software and is represented in FIGS. 5c and 5d.
Generation of a Subcutaneous Lung Cancer Model: A549 cells were treated with vehicle (media only) or 50 μM DETA NONOate in media for 10 days. Cells were washed with PBS, resuspended in serum-free media (Hams F-12K), and mixed 1:1 with Geltrex (v/v) (to a final concentration of 5×10^7 cells/mL). Tumors were generated by subcutaneously injecting 100 μL of these cell solutions into the flanks of 4-week-old Nu/J mice (The Jackson Laboratory stock #: 002019).
BL660-NTR was dissolved in DMSO and diluted with PBS (3:7 v/v DMSO:PBS). The solution was filtered through a […] sterile filter immediately prior to use. The typical injection volume is ˜100 μM at a dose of 2.2 μmol/kg.
Compound 4 was dissolved in DMSO and diluted with PBS (3:7 v/v DMSO:PBS). The solution was filtered through a […] sterile filter immediately prior to use. The typical injection volume is ˜100 μM at a dose of 2.2 μmol/kg.

Molecules are shown by their SMILES.

On to `CCN(CC)c1ccc(C=CC=CC2=NC(C(=O)OC(c3ccccc3)C(C)C)CS2)cc1` (stereo not drawn) [Compound (4)], for which the “resistance to hydrolysis relative to the parent benzyl ester” value in data set [1] was “about 140 fold”. Moreover, in the data set on porcine liver esterase, the “esterase stability relative to the parent benzyl ester” value was “about 68 fold”. For the same molecule, the “rate of hydrolysis at pH 5.0” value in data set [2] (Britton-Robinson buffer pH 5.0, 37° C., 2, 3 and 4 hrs) was 25.7±9.6×10^2 total luminescence counts per hour. For the same molecule, the “rate of hydrolysis at pH 7.4” value in data set [2] (Britton-Robinson buffer pH 7.4, 37° C., 2, 3 and 4 hrs) was 8.6±1.3×10^2 total luminescence counts per hour. Moreover, the “rate of hydrolysis at pH 9.0” value in data set [2] (Britton-Robinson buffer pH 9.0, 37° C., 2, 3 and 4 hrs) is on record as 52.8±20.7×10^2 total luminescence counts per hour. In data set [3], the “activation on exposure to ester-cleaving enzymes” value is reported as “minimal activation”. Moreover, in the data set on 4T1-Luc cells, the total luminescence count is on record as 3.1±1.2×10^3 total luminescence count. For the same molecule, the “BL signal in the tumors (in words)” value in the data set on A549-Luc2 tumors (5 to 75 min after retroorbital injection) is “barely discernable from background”. Also, the “total luminescent count in tumors after 15 mins” value in the data set on A549-Luc2 tumors (15 mins after retroorbital injection, NU/J mice with A549-Luc2 tumors) is reported as 4.0±0.7×10^3 total luminescent count.
